According to patent US6281214A, “Biphenyl derivatives” (Eisai Co., Ltd, priority 1994, dated 2001):
pKi: −log10 of the molar value. Read-outs that look alike come from different tables or passages of the source.

Tests used:
dopamine D2 receptor = biological target: T1, dopamine D2 receptor (Rattus norvegicus, UniProt P61169); experiment: dopamine D2 receptor binding test ([3H] Spiperone Binding Test); parameters: species or system SD rats; details: 1 nM [3H] Spiperone, rat corpus striatum, room temperature, 60 minutes
T1 construct: the receptor fraction prepared from the corpus striatum was molten and suspended; from tissue; host or cells: corpus striatum of SD rats (membrane fraction)
T1 sequence (P61169 whole entry): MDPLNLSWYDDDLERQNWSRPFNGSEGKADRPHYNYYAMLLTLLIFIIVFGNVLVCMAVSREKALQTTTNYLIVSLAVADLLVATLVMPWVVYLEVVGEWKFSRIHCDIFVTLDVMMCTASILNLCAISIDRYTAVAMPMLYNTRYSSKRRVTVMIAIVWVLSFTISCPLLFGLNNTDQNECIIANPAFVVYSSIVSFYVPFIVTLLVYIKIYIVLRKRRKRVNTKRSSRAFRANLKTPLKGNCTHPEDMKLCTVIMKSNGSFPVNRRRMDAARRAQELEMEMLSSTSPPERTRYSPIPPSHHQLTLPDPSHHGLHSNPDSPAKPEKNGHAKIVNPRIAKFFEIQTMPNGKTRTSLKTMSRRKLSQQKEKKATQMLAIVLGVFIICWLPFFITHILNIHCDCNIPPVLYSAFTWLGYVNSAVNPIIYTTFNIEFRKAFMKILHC
Outline: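 Rat (SD, 6–8 weeks) corpus striatum membranes in 50 mM Krebs-Tris pH 7.4 were incubated with 1 nM [3H]spiperone at room temperature for 60 minutes, with nonspecific binding defined by excess spiperone. IC50 came from probit analysis; Ki was derived using radioligand concentration and Scatchard Kd.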

serotonin S2 receptor = biological target: T2, serotonin S2 receptor (Rattus norvegicus, UniProt P14842); experiment: serotonin S2 receptor binding test ([3H] Ketanserin Binding Test); parameters: species or system SD rats; details: 1 nM [3H] Ketanserin, rat cortex, 37° C., 15 minutes
T2 construct: The receptor fraction prepared from the cortex was molten and suspended; from tissue; host or cells: cerebral cortex of SD rats (membrane fraction)
T2 sequence (P14842 whole entry): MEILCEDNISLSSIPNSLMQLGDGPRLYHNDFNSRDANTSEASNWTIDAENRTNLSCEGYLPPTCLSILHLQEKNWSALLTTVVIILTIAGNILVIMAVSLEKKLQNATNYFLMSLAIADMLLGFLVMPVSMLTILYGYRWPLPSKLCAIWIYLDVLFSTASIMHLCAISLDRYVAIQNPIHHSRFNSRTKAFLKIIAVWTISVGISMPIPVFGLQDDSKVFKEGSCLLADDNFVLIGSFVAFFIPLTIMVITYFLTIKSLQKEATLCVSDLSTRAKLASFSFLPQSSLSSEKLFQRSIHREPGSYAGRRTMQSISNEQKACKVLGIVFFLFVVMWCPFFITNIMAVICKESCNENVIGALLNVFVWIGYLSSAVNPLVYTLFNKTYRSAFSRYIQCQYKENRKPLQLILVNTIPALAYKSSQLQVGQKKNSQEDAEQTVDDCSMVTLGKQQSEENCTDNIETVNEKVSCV
Outline: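 Ki values came from probit IC50s corrected for radioligand concentration and Kd (Scatchard). Binding used 1 nM [3H]ketanserin with SD rat cortex membrane fractions, 15 min at 37 °C in Tris-HCl pH 7.4. Bound radioactivity was measured after GF/B filtration, with methysergide for nonspecific binding.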

adrenergic α1 receptor = adrenergic α1 receptor binding test ([3H] Prazosin Binding Test); parameters: species or system SD rats; details: 1 nM [3H] Prazosin, rat cortex, room temperature, 60 minutes
Outline: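 Rat (SD, 6-8 weeks) cerebral cortex membranes in 50 mM Tris-HCl pH 7.4 incubated with 1 nM [3H]prazosin for 60 min at room temperature; nonspecific binding defined with phentolamine. IC50 by probit method, converted to Ki using radioligand concentration and Scatchard-derived Kd.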

[1] = background, cited from earlier work; for extrapyramidal syndrome as adverse reaction: D2 receptor antagonists
[2] = read-out: Ki value, dopamine D2 receptor

Row | SMILES | pKi (dopamine D2 receptor; [2]) | pKi (serotonin S2 receptor) | pKi (adrenergic α1 receptor) | pKi (dopamine D2 receptor; Ki value, dopamine D2 receptor) | blood-pressure drop as adverse reaction ([1]; owing to high α1 blocking activity) | QTC interval in electrocardiogram [1] | extrapyramidal syndrome as adverse reaction [1]
1 | CCCS(=O)(=O)NCc1cc(N2CCN(CC)CC2)cc(-c2ccccc2C)c1Cl [Example 192, 1-Ethyl-4-[3-(2-tolyl)-4-chloro-5-propanesulfonylaminomethyl]phenylpiperazine] | < 7.00 | 6.43 | 6.26 | – | – | – | –
2 | CCCS(=O)(=O)c1cc(N2CCN(C)CC2)cc(-c2ccc(F)cc2)c1OC [Example 193, 1-Methyl-4-[3-(4-fluorophenyl)-4-methoxy-5-propanesulfonyl]phenylpiperazine] | 7.71 | 8.79 | 6.23 | – | – | – | –
3 | CCCS(=O)(=O)Nc1cc(N2CCN(CC)CC2)cc(-c2ccccc2CC)c1Cl [Example 194, 1-Ethyl-4-[3-(2-ethylphenyl)-4-chloro-5-propanesulfonylamino]phenylpiperazine] | 9.08 | 8.35 | < 6.00 | – | – | – | –
4 | CCS(=O)(=O)c1cc(N2CCN(CCO)CC2)cc(-c2ccc(F)cc2)c1OC [Example 195] | 7.15 | 8.24 | < 6.00 | – | – | – | –
5 | CCCS(=O)(=O)Nc1cc(N2CCN(CC)CC2)cc(-c2ccccc2C=O)c1Cl [Example 196, 1-(2-Ethyl)-4-[3-(2-formylphenyl)-4-chloro-5-propanesulfonylamino]phenylpiperazine] | 8.26 | 7.88 | 6.13 | – | – | – | –
6 | CCCS(=O)(=O)Nc1cc(N2CCN(CC)CC2)cc(-c2ccccc2C#N)c1Cl [Example 197, 1-Ethyl-4-[3-(2-cyanophenyl)-4-chloro-5-propanesulfonylamino]phenylpiperazine] | 8.85 | 8.05 | 7.50 | – | – | – | –
7 | CCS(=O)(=O)c1cc(N2CCN(CCc3ccccn3)CC2)cc(-c2ccc(F)cc2)c1OC [Example 198, 1-[2-(2-Pyridyl)ethyl]-4-[3-(4-fluorophenyl)-4-methoxy-5-ethanesulfonyl]phenylpiperazine] | 7.92 | 8.97 | 7.20 | – | – | – | –
8 | CCS(=O)(=O)c1cc(N2CCN(CCc3ccncc3)CC2)cc(-c2ccc(F)cc2)c1OC [Example 201, 1-[2-(4-Pyridyl)ethyl]-4-[3-(4-fluorophenyl)-4-methoxy-5-ethanesulfonyl]phenylpiperazine] | 7.71 | 8.50 | 7.89 | – | – | – | –
9 | CCC(F)c1cc(N2CCN(C)CC2)cc(-c2ccccc2)c1Cl (stereo not shown) [Example 206] | – | 8.37 | 7.32 | 8.97 | – | – | –
10 | CCC(F)c1cc(N2CCN(C)CC2)cc(-c2ccccc2CO)c1Cl (stereo not shown) [Example 207] | 6.62 | 7.09 | < 6.00 | – | – | – | –
11 | CCC(F)c1cc(N2CCN(CC)CC2)cc(-c2ccccc2CF)c1Cl (stereo not shown) [Example 208, 1-Ethyl-4-[3-(2-fluoromethylphenyl)-4-chloro-5-(1-fluoropropyl)]phenylpiperazine] | 8.46 | 7.79 | 5.62 | – | – | – | –
12 | CC[C@H](F)c1cc(N2CCN(CC)CC2)cc(-c2ccc(F)cc2C)c1Cl [Example 211, 1-Ethyl-4-{3-[2-(4-fluorotolyl)]-4-chloro-5-[1-(S)-fluoropropnyl]}phenylpiperazine] | 8.38 | 8.06 | 5.99 | – | – | – | –
13 | CCC(F)c1cc(N2CCN(CCc3ccccn3)CC2)cc(-c2ccccc2C)c1Cl (stereo not shown) [Example 213, 1-[2-(2-Pyridyl)ethyl]-4-[3-(2-tolyl)-4-chloro-5-(1-fluoropropyl)]phenylpiperazine] | 7.84 | 7.99 | 6.63 | – | – | – | –
14 | CCC(F)c1cc(N2CCN(CCc3ccccn3)CC2)cc(-c2ccccc2C#N)c1Cl (stereo not shown) [Example 214, 1-[2-(2-Pyridyl)ethyl]-4-[3-(2-cyanophenyl)-4-chloro-5-(1-fluoropropyl)]phenylpiperazine] | 8.29 | 8.42 | 7.29 | – | – | – | –
15 | CC[C@@H](F)c1cc(N2CCN(C)CC2)cc(-c2ccccc2C)c1Cl [Example 220, 1-Methyl-4-{3-(2-tolyl)-4-chloro-5-[1-(R)-fluoropropyl]}phenylpiperazine] | 8.90 | 7.42 | 5.77 | – | – | – | –
16 | CC[C@H](F)c1cc(N2CCN(C)CC2)cc(-c2ccccc2C)c1Cl [Example 221, 1-Methyl-4-{3-(2-tolyl)-4-chloro-5-[1-(S)-fluoropropyl]}phenylpiperazine] | 8.46 | 8.34 | 6.31 | – | – | – | –
17 | CC[C@H](F)c1cc(N2CCN(CCO)CC2)cc(-c2ccc(F)cc2C)c1Cl [Example 222] | 8.19 | 7.92 | 5.98 | – | – | – | –
18 | CC[C@@H](F)c1cc(N2CCN(CCO)CC2)cc(-c2ccc(F)cc2C)c1Cl [Example 223, 1-(2-Hydroxyethyl)-4-{3-[2-(4-fluorotolyl)]-4-chloro-5-[1-(R)-fluoropropyl]}phenylpiperazine] | 8.18 | 5.73 | 5.82 | – | – | – | –
19 | Cc1nc2n(c(=O)c1CCN1CCC(c3noc4cc(F)ccc34)CC1)CCCC2 [Risperidone, risperidone] | – | – | – | – | blood-pressure drop occurs as an adverse reaction | lengthened to induce arrhythmia | –
20 | CCN(CC)CCNC(=O)c1cc(S(C)(=O)=O)ccc1OC [Tiapride] | – | – | – | – | – | – | causing extrapyramidal syndrome
21 | O=C(CCCN1CCC(O)(c2ccc(Cl)cc2)CC1)c1ccc(F)cc1 [haloperidol] | – | – | – | – | – | – | causing extrapyramidal syndrome
